Measurements reported in US20140249143A1, “Compounds And Methods For Enhancing Innate Immune Responses” (GlaxoSmithKline LLC, priority 2011, published 2014).

Columns and labels:
[1] = tested on: HCV genotype 1a subgenomic replicon; experiment: Anti-Hepatitis C replicon assay, genotype 1a (luciferase); type: cell-based; details: Hepatitis C virus; luciferase activity measured 48 hours later; read-out: HCV Genotype 1A Replicon pEC50 (converted)
Description: (§1) Compounds were assayed for activity against HCV using the genotype 1a and 1b subgenomic replicon model systems. Stable cell lines bearing the genotype 1a and 1b replicons were used for screening of compounds. Both replicons are bicistonic and contain the firefly luciferase gene. The ET cell line is stably transfected with RNA transcripts harboring a I389luc-ubi-neo/NS3-3′/ET replicon with firefly luciferase-ubiquitin-neomycin phosphotransferase fusion protein and EMCV-IRES driven NS3-5B polyprotein containing the cell culture adaptive mutations (E1202G; T1280I; K1846T) (Krieger at al, 2001 and unpublished). The genotype 1a replicon is a stable cell line licensed from Apath LLC, modified to contain the firefly luciferase gene. The cells were grown in DMEM, supplemented with 10% fetal calf serum, 2 mM Glutamine, Penicillin (100 IU/mL)/Streptomycin (100 μg/mL), 1× nonessential amino acids, and 250-500 μg/mL G418 (“Geneticin”). They were all available through Life Technologies (Bethesda, Md.). The cells were plated at 0.5×10^4 cells/well in 384 well plates containing compounds. The final concentration of compounds ranged between 0.03 pM to 50 μm and the final DMSO concentration of 0.5-1%.
(§2) Luciferase activity was measured 48 hours later by adding a Steady glo (Promega, Madison, Wis.). Percent inhibition of replication data was plotted relative to no compound control. Under the same condition, cytotoxicity of the compounds was determined using cell titer glo (Promega, Madison, Wis.). IC50s were determined from a 10 point dose response curve using 3-4-fold serial dilution for each compound, which spans a concentration range>1000 fold. BioAssay determines the level of inhibition for each compound by normalizing cross-talk corrected plate values against the negative (low or background, cells with no compound present) and positive (high DMSO, no cells) controls to determine Percent Inhibition:
(§3) These normalized values are exported to IC50 where they are plotted against the molar compound concentrations using the standard four parameter logistic equation: […]

[2] = tested on: HCV genotype 1b subgenomic replicon; experiment: Anti-Hepatitis C replicon assay, genotype 1b (luciferase); type: cell-based; details: Hepatitis C virus; luciferase activity measured 48 hours later; read-out: HCV Genotype 1B Replicon pEC50 (converted)
Description: as §1, §2, §3

[3] = tested on: ISG56 (Interferon-Stimulated Gene 56) promoter ISRE; experiment: ISG56 luciferase reporter assay in HEK 293 cells; type: cell-based; details: Homo sapiens, HEK293; HEK 293 reporter, 24 hours; 100% = small molecule control test compound; read-out: ISG56 (Average Max Response) %
Description: Compounds of the present invention were tested against a HEK (Human Embryonic Kidney) 293 cell line that was stably transfected with a firefly luciferase reporter gene under the control of the ISG56 (Interferon-Stimulated Gene 56) promoter ISRE (Interferon-Stimulated Response Element). While the ISRE is in the opposite orientation of the wild type promoter, literature^1 cites that the response elements are pallindromic and function properly in either orientation. ^1Reich, N., Evans, B., Levy, D., Fahey, D., Knight, E., Damell, J. E. (1987) Interferon-induced transcription of a gene encoding a 15-kDa protein depends on an upstream enhancer element. See, Proc. Natl. Acad. Sci. 84, (6394-6398).
In preparation for the assay, test compounds were serially diluted 3-fold in DMSO from a typical top concentration of 5 mM and plated at 0.2 μL in a 384-well, polystyrene, tissue culture treated plate with lid (Greiner Bio-One North America, Inc., Monroe, N.C.) to generate 11-point dose response curves in the assay. Low control wells (0% response) contained 0.2 μL of DMSO alone, and high control wells (100% response) contained 0.2 μL of a small molecule control test compound.
Frozen stocks of the transfected HEK 293 cells were washed and recovered in DMEM I Ham's F-12 media (Invitrogen Corporation, Carlsbad, Calif.) supplemented with 10% v/v qualified Australian fetal bovine serum (FBS) (Invitrogen Corporation, Carlsbad, Calif.), 1× GlutaMAX™ (Invitrogen Corporation, Carlsbad, Calif.), 1×MEM non-essential amino acids (NEAA) (Invitrogen Corporation, Carlsbad, Calif.) and 500 μg/ml Geneticin® (Invitrogen Corporation, Carlsbad, Calif.). The cells were diluted to 500,000 cells/mL in the supplemented DMEM/Ham's F-12 media, and 20 μL of the cell suspension were added to each well of the previously prepared 384-well compound plate, resulting in 10,000 cells/well. The plate, with lid, were placed in a 37° C., 5% CO2 humidified incubator for 24 hours.
Following incubation, the plates were removed and placed on the bench top without lids to equilibrate to room temperature for 30 minutes. Steady-Glo® (Promega Corporation, Madison, Wis.) was prepared according to the manufacturer's instructions, and 10 μL were added to each plate well. After a twenty minute incubation at room temperature, luminescence was read on a ViewLux™ (PerkinElmer Inc., Waltham, Mass.).
The data for dose responses were plotted as % activation versus compound concentration following normalization using the formula 100*((U−C1)/(C2−C1)), where U was the unknown value, C1 was the average of the low (0% response) control wells and C2 was the average of the high (100% response) control wells. Curve fitting was performed with the equation y=A+((B−A)/(1+(10^x/10^C)^D)), where A was the minimum response, B was the maximum response, C was the log(EC50) and D was the Hill slope. The results for each test compound were recorded as pEC50 values (—C in the above equation) and as max response values at a given concentration.

[4] = tested on: reconstructed human epidermis (RHE) keratinocytes; experiment: JAK/STAT induction in reconstructed human epidermis (western blot, real-time PCR); type: cell-based; details: 10 μM (IFN-alpha 100 U/mL), 6 and 72 hrs
Description: First, reconstructed human epidermis (“RHE”) consisting of cultured human keratinocyte cells were incubated in triplicate with media containing either the media alone, media+0.1% DMSO, media containing 10 μM of several putative JAK/STAT activator compounds described herein in Tables 1 and 2 (Example 1, Example 2, Example 11, and compound no. 89 (as a negative control)), or media containing 100 U/mL of a positive control Interferon-alpha (IFN-alpha) recombinant protein at 37° C. in a humidified atmosphere containing 5% CO2, for 6 and 72 hours.
At the end of the incubation period, the RHE tissues were cut into two sections. One section was ¼ of the total size and the second section was […].

ISGs and cytokines mRNA = experiment: Induction of ISGs in mice in vivo; design: species or system Balb/c mice; details: Example 1 oral 300 mg/kg; murine IFNα2 30 ug/kg intravenously
Description: Naive Balb/c mice were purchased from Charles River Laboratories (Wilmington, Mass.) and administered with murine IFNα2 (30 ug/kg) intravenously or administered with oral Example 1 (300 mg/kg in 30/70% solutol/polyethylene glycol 400). The mice were then euthanized by CO2 inhalation at 0.5, 2, 6, 8, and 24 hours for sample collection. Four mice per dose group were tested.
For RNA isolation, the blood was collected in an RNAprotect™ tube (Qiagen) and processed with RNeasy Protect™ animal blood kit (Qiagen) according to the manufacturer's protocol. To preserve RNA, 30-200 mg of tissue pieces were stored in RNAlater™ solution (Invitrogen) until use. For RNA isolation, the thawed tissues were homogenized using a TissueLyser™ system (Qiagen) and processed with RNeasy 96 Universal Tissue Kit™ (Qiagen) according to the manufacturer's protocol. To remove DNA contamination, on-plate DNase digestion was included during the RNA purification.
(§4) For real time RT-PCR, cDNA was made using High Capacity cDNA Reverse Transcription Kit™ (Applied Biosystems). Gene expression was measured using TaqMan Fast Universal PCR Master Mix™ (Applied Biosystems) and gene specific probes and murine primers in HT7900 FAST System™ (Invitrogen). As housekeeping genes, actin and GAPDH were used for normalization. Data was calculated by the ΔΔCt method and fold change determined compared to non-treated control samples.

human JAK1 = target: T1, human JAK1 (Homo sapiens, UniProt P23458); experiment: JAK1 reconstitution in U4A and 2fGH cells (phosphor-STAT1 western blot, Taqman mRNA); type: cell-based; details: 100 U/ml
T1 construct: expressed in transfected cells; host or cells: U4A cells (JAK1-deficient derivative of the human fibroblast line 2fGH), transduced with a baculovirus mammalian expression system
Description: 2fGH and U4A cells were obtained from the Cleveland Clinic. 2fGH is a human fibroblast cell line and U4A cell line is a derivative 2fGH harboring a defect in JAK1 expression (Muller, et al., Nature 366, 129-135 (1993)). Green fluoroscent protein (GFP) or human JAK1 was transduced in U4A cells by baculovirus mammalian expression system. After 24 hours post transduction, the cells were treated with DMSO, Example 1 (10 μM), IFNα (100 U/ml), IFNβ (100 U/ml), or IFNγ (100 U/ml). Untransduced U4A cells and 2fGH cells were included as controls for 6 or 18 hours. The cells were harvested at indicated time points and used for detecting phosphor-STAT1 by western blot (FIG. 10, panel A) or for mRNA analysis by Taqman quantitation (FIG. 10, panel B).
The total cell lysates were analyzed on a 4-20% SDS-PAGE gradient gel and followed by immunoblotting using anti-phopho STAT1 antibody (Cell Signaling). The level of actin was monitored as a loading control. The bands were visualized by the alkaline phosphatase activity conjugated with the secondary antibody (Promega) using ProtoBlot II AP system (Promega).
as §4, with “Gene” for “For real time RT-PCR, cDNA was made using High Capacity cDNA Reverse Transcription Kit™ (Applied Biosystems). Gene”, “Mix” for “Mix™”, “System” for “System™”

T1 sequence (P23458 whole entry): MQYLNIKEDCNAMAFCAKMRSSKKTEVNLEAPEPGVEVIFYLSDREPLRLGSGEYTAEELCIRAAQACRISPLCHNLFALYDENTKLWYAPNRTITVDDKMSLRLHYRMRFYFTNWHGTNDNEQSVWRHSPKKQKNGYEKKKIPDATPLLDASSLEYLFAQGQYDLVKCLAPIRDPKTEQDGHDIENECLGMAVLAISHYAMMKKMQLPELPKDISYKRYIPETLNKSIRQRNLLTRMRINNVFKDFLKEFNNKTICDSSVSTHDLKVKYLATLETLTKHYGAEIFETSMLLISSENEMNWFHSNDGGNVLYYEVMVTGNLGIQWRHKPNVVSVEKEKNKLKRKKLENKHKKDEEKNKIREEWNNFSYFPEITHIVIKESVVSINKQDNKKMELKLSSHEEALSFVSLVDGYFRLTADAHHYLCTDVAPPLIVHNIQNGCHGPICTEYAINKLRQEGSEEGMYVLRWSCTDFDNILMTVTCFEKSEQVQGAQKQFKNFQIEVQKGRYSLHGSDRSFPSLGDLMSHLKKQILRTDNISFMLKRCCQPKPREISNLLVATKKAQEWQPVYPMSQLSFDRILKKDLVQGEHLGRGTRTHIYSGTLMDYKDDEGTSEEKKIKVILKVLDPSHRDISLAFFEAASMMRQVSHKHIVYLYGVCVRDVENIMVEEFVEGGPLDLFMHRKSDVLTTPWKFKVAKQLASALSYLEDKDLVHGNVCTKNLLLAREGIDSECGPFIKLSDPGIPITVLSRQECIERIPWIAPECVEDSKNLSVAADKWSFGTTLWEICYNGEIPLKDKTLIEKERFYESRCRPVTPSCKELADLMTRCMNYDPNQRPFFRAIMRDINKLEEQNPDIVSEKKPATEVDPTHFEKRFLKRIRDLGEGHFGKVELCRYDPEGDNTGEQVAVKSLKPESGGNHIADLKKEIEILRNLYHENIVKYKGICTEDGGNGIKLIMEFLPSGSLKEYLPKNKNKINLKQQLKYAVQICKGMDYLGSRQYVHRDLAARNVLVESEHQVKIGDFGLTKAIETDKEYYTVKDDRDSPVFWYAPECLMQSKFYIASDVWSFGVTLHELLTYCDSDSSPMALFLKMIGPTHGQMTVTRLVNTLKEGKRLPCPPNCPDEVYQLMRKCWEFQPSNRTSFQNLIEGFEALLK

FC(F)(F)c1cc(C2CCCC2)nc2c1ccc1nc(-c3nnco3)cn12 [Compound 2, 2-[2-cyclopentyl-4-(trifluoromethyl)imidazo[1,2-a]1,8-naphthyridin-8-yl]-1,3,4-oxadiazole]
EC50 [1]: 0.0501 µM | EC50 [2]: 0.251 µM | Emax [3]: 31% | Stat1 phosphorylation (western blot) [4]: Stat1 phosphorylation

FC(F)(F)c1cc(C(F)(F)F)c2ccc3nc(-c4nnco4)cn3c2c1 [Compound 24, 2-[6,8-bis(trifluoromethyl)imidazo[1,2-a]quinolin-2-yl]-1,3,4-oxadiazole]
EC50 [1]: 0.631 µM | EC50 [2]: 3.16 µM | Emax [3]: 5.75%

FC(F)(F)c1cc(C(F)(F)F)c2ccc3nc(-c4ccco4)cn3c2n1 [Compound 25, 8-(furan-2-yl)-2,4-bis(trifluoromethyl)imidazo[1,2-a]1,8-naphthyridine]
EC50 [1]: 3.98 µM | EC50 [2]: 3.16 µM | Emax [3]: 6.5%

Cc1cc(C)c2ccc3nc(-c4nnco4)cn3c2n1 [Compound 26, 2-{2,4-dimethylimidazo[1,2-a]1,8-naphthyridin-8-yl}-1,3,4-oxadiazole]
EC50 [1]: 6.31 µM | EC50 [2]: 5.01 µM | Emax [3]: 8%

FC(F)(F)c1cc(C(F)(F)F)c2ccc3nc(-c4ncco4)cn3c2n1 [Compound 27, 2-[2,4-bis(trifluoromethyl)imidazo[1,2-a]1,8-naphthyridin-8-yl]-1,3-oxazole]
EC50 [1]: 2.51 µM | EC50 [2]: 6.31 µM | Emax [3]: 29%

FC(F)(F)c1cc(C(F)(F)F)c2ccc3[nH]c(-c4cnco4)nc3c2n1 [Compound 28, 5-[6,8-bis(trifluoromethyl)-3H-imidazo[4,5-h]quinolin-2-yl]-1,3-oxazole]
EC50 [1]: 10 µM | EC50 [2]: 7.94 µM | Emax [3]: 11.5%

FC(F)(F)c1cc(Cl)nc2c1ccc1nc(-c3nnco3)cn12 [Compound 29, 2-[2-chloro-4-(trifluoromethyl)imidazo[1,2-a]1,8-naphthyridin-8-yl]-1,3,4-oxadiazole]
EC50 [1]: 6.31 µM | EC50 [2]: 7.94 µM | Emax [3]: 10%

B1: murine IFNα: murine IFNα2 administered intravenously to mice (30 ug/kg) as comparator (protein, UniProt P01573 24-190, looked up)
Interferon alpha-2: CDLPHTYNLRNKRALKVLAQMRRLPFLSCLKDRQDFGFPLEKVDNQQIQKAQAIPVLRDLTQQTLNLFTSKASSAAWNATLLDSFCNDLHQQLNDLQTCLMQQVGVQEPPLTQEDALLAVRKYFHRITVYLREKKHSPCAWEVVRAEVWRALSSSVNLLPRLSEEKE
up-regulation of ISGs at 24 hours (ISGs and cytokines mRNA): evidently diminished

B2: IFNγ: type II interferon used as control treatment (100 U/ml) (protein, UniProt P01579 24-161, looked up)
Interferon gamma: QDPYVKEAENLKKYFNAGHSDVADNGTLFLGILKNWKEESDRKIMQSQIVSFYFKLFKNFKDDQSIQKSVETIKEDMNVKFFNSNKKKRDDFEKLTNYSVTDLNVQRKAIHELIQVMAELSPAAKTGKRKRSQMLFRG
expression of CXCL9 in 2fGH cells (human JAK1): only observed with IFNγ treatment
